Measured values: US20210115145A1, “COMBINATION THERAPY WITH TARGETED TGF-B INHIBITION FOR TREATMENT OF ADVANCED NON-SMALL CELL LUNG CANCER” (Merck Patent GmbH, priority 2018, published 2021)

What was measured:
[1] = test system: advanced malignant melanoma or renal cell carcinoma; details: cited from earlier work
EMT-6 xenografts = experiment: Mouse PK/Efficacy model from EMT-6 xenograft efficacy results; type: in vivo
Procedure: Experiments were also conducted to determine the efficacy of the anti-PD-L1/TGFβ Trap molecule in a tumor model. Efficacy results from EMT-6 xenografts were used to establish the PK/Efficacy model.
The model predictions are able to capture the tumor volume distributions. Conditional weighted residuals are normally distributed with a 0 mean and 1 variance without a trend. The PK/Efficacy model was then used to simulate tumor growth inhibition (TGI) using the human predicted concentration-time profiles at different doses.

advanced NSCLC = experiment: Clinical study in 2L NSCLC, q2w dosing: response per RECIST v1.1; type: in vivo, human
PD-L1 and TGFβ = experiment: Two-step ELISA, simultaneous binding
[2] = test system: PD-L1 and TGFβ dependent signaling; experiment: Inhibition of PD-L1 and TGFβ dependent signaling in vitro; type: cell-based
mouse tumor models = experiment: Antitumor activity in mouse tumor models; type: in vivo
melanoma = details: Phase I; cited from earlier work
TGFβ1 = TGFβ1 (Homo sapiens, UniProt P01137); details: binding of TGFβ1; cited from earlier work
[3] = test system: scarring after eye surgery; details: Phase 3; cited from earlier work
[4] = PK/Efficacy model parameter estimate, EMT-6 xenograft mice
[5] = PD-L1 high (≥80%) pts, 500 mg q2w
[6] = PD-L1 high (≥80%) pts, 1200 mg q2w

TGFβ1, sequence (P01137 279-390 limits assumed, species assumed): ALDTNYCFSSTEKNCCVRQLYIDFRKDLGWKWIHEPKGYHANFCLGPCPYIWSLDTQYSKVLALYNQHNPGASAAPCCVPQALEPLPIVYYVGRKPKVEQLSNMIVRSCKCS

GC1008: a human antibody specific for all isoforms of TGFβ
clinical efficacy ([1]; Phase I/II, patients): only limited clinical efficacy
safety ([1]; in vivo): safe and well tolerated

anti-PD-L1/TGFβ Trap: bi-functional fusion protein: anti-PD-L1 antibody heavy chains fused via glycine-serine linker to extracellular domain of human TGFβRII; SEQ ID NO: 3 and 1
KC50 (EMT-6 xenografts; [4]): 55324.6 ng/mL
Kmax (EMT-6 xenografts; [4]): 2
KC50 (average plasma concentration for 50% of the maximal anti-tumor activity) (EMT-6 xenografts; estimated, EMT-6 xenografts): 55.3 µg/mL
ORR, % (advanced NSCLC; All patients, 500 mg q2w): 20.0%
ORR, n (responders/patients) (advanced NSCLC; All patients, 500 mg q2w): 8/40
ORR, % (advanced NSCLC; All patients, 1200 mg q2w): 27.5%
ORR, n (responders/patients) (advanced NSCLC; All patients, 1200 mg q2w): 11/40
ORR, n (responders/patients) (advanced NSCLC; All patients, Total): 19/80
ORR, % (advanced NSCLC; All patients, Total (both doses)): 23.8%
ORR, % (advanced NSCLC; PD-L1+ (≥1%) pts, 500 mg q2w): 19.4%
ORR, n (responders/patients) (advanced NSCLC; PD-L1+ (≥1%) pts, 500 mg q2w): 6/31
ORR, % (advanced NSCLC; PD-L1+ (≥1%) pts, 1200 mg q2w): 40.7%
ORR, n (responders/patients) (advanced NSCLC; PD-L1+ (≥1%) pts, 1200 mg q2w): 11/27
ORR, % (advanced NSCLC; PD-L1+ (≥1%) pts, Total): 29.3%
ORR, n (responders/patients) (advanced NSCLC; PD-L1+ (≥1%) pts, Total): 17/58
ORR, % (advanced NSCLC; [5]): 33.3%
ORR, n (responders/patients) (advanced NSCLC; [5]): 2/6
ORR, % (advanced NSCLC; [6]): 85.7%
ORR, n (responders/patients) (advanced NSCLC; [6]): 6/7
ORR, % (advanced NSCLC; PD-L1 high (≥80%) pts, Total): 62.0%
ORR, n (responders/patients) (advanced NSCLC; PD-L1 high (≥80%) pts, Total): 8/13
partial responses (PR) (advanced NSCLC; across both dose levels (500 mg and 1200 mg q2w), 80 patients): 18
complete response (CR) (advanced NSCLC; at 1200 mg q2w): 1
simultaneous binding to PD-L1 and TGFβ (PD-L1 and TGFβ; FIG. 2): simultaneously binds to both PD-L1 and TGFβ
simultaneous binding to PD-L1 and TGFβ (PD-L1 and TGFβ; FIG. 2, listed as protein of the present disclosure): simultaneously bound to both PD-L1 and TGFβ
PD-L1 and TGFβ dependent signaling [2]: inhibited
antitumor activity and survival versus anti PD-L1 antibody avelumab or TGFβ Trap control alone (mouse tumor models; mouse tumor models, preclinical data): strongly enhances antitumor activity and prolongs survival
antitumor activity (mouse tumor models; variety of mouse models): potent antitumor activity

fresolimumab: monoclonal antibody targeting TGFβ1, 2 and 3
tumor response (melanoma): initial evidence of tumor response

B1: recombinant soluble TGFβRII: recombinant soluble extracellular domain of TGFβRII (protein, UniProt P37173 23-166, looked up)
extracellular domain: TIPPHVQKSVNNDMIVTDNNGAVKFPQLCKFCDVRFSTCDNQKSCMSNCSITSICEKPQEVCVAVWRKNDENITLETVCHDPKLPYHDFILEDAASPKCIMKEKKKPGETFFMCSCSSDECNDNIIFSEEYNTSNPDLLLVIFQ
modifications: extracellular domain
Kd (TGFβ1): 0.2 nM

B2: Lerdelimumab: an antibody specific for TGFβ2 (antibody, chains of the INN, looked up, V domains shown)
VH: EVQLVESGGGVVQPGRSLRLSCAASGFTFSSYGMHWVRQAPGKGLEWVAVIWYDGSNKYYADSVKGRFTISRDNSKNTLYLQMDSLRAEDTAVYYCGRTLESSLWGQGTLVTVSS
VL: SSELTQDPAVSVALGQTVRITCQGDSLRSYYASWYQQKPGQAPVLVIYGKNNRPSGIPDRFSGSSSGNTASLTITGAQAEDEADYYCNSRDSSSTHRGVFGGGTKLTVL
safety and efficacy at improving scarring [3]: safe but ineffective
